# Test results as given in patent US10329262B2, “Quinazolinone antibiotics” (priority 2013, dated 2019).
# Assays:
# S. aureus NRS119 = assay: MIC, CLSI broth microdilution, S. aureus NRS119; type: cell-based, Staphylococcus aureus
# Description: (§1) MICs were evaluated following the CLSI microdilution method in BBL™ Mueller-Hinton II broth (Wikler et al., Clinical Laboratory Standards Institute Document M7-A7, 29 (2009)). Briefly, two-fold serial dilutions of compound were prepared in triplicate in 96-well plates and inoculated with 5×10^5 cfu/mL of the bacterial suspension. Plates were incubated at 37° C. for 16-20 hours.
# [1] = system: S. epidermidis ATCC 35547; assay: MIC, CLSI broth microdilution, S. epidermidis ATCC 35547; type: cell-based
# Description: as §1
# HepG2 cells = assay: cells; conditions: Homo sapiens, HepG2, 16 h, read-out: IC50, XTT cell proliferation assay
# Description: HepG2 cells (ATCC HB-8065) were maintained in monolayer culture at 37° C. and 5% CO2 in Dulbecco's Modified Eagle's Medium supplemented with 10% fetal bovine serum, non-essential amino acids, 2 mM L-glutamine, and 1% penicillin-streptomycin. […] The cells were washed with Dulbecco's PBS twice, 150 μL of XTT working solution was added to each well, followed by 3-h incubation. Absorbance at 475 nm (test wavelength) and 660 nm (reference wavelength) was read with a microplate reader. Experiments were performed in triplicate and repeated twice. IC50 values were calculated using GraphPad prism 5.
# [2] = Metabolic stability in rat S9; type: in vitro ADME; conditions: rat S9, 2 μM
# Description: Aliquots were taken at 0, 5, 10, 20, 30, 40, and 60 min, and mixed with two volumes of acetonitrile containing internal standard. The precipitated protein was centrifuged at 20,000 g for 15 min, and the supernatant was analyzed by reversed-phase UPLC.
compound,measurement,setting,value
"N#Cc1ccc(/C=C/c2nc3ccccc3c(=O)n2-c2cccc(C(=O)O)c2)cc1.[Na] [Compound 2, Sodium (E)-3-(3-carboxyphenyl)-2-(4-cyanostyryl)quinazolin-4(3H)-one]",MIC,"S. aureus NRS119; Staphylococcus aureus, NRS119",8 µg/mL
same,In vitro AB activity (MIC),"S. aureus NRS119; Table 2.1, S. aureus NRS119",8 µg/mL
same,MIC,"[1]; Staphylococcus epidermidis, ATCC35547",1 µg/mL
same,In vitro AB activity (MIC),"[1]; Table 2.1, S. epidermidis ATCC 35547",1 µg/mL
same,IC50,HepG2 cells,63 ± 1 µg/mL
same,Compound remaining after 1-h incubation,[2],100%
